According to patent publication US7534455B2, “Herbal composition PHY906 and its use in chemotherapy” (Yale University, priority 2000, dated 2009):
Read-outs that look alike come from different tables or passages of the source.

What was measured:
[1] = Host toxicity (body weight loss, mortality, blood cell counts) in chemotherapy treated BDF-1 mice bearing Colon 38 tumor; assay type: in vivo
Experimental: (§1) Anti-Tumor Studies: Murine Colon 38 (1-2×10^6 cells in 0.1 ml PBS) or human HepG2 cells (1-2×10^6 cells in 0.1 ml PBS) were transplanted subcutaneously into BDF1 or NCr athymic nude mice, respectively. The length and width of the tumors were measured daily with sliding calipers. The tumor weight was estimated according to the following formula (Pizzorno G, Wiegand R, Lentz S, et al., Cancer Res. 52:1660-1665 (1992)): Tumor weight (mg)=length (mm)×width (mm)^2/2.
(§2) After 10 to 14 days, mice (five animals/group) with tumor weights ranging from 150-200 mg were selected for drug studies (Guo X, Lerner-Tung M, Chen H X, et al., Biochem Pharmacol 49:1111-1116 (1995)). Mice were sacrificed when the tumor size reached 10% of body weight. PHY906 was administered orally either alone or with anti-cancer chemotherapeutic agents. The effect of PHY906 on antitumor efficacy and the reduction of toxicity by the agents were evaluated. CPT-11 was given intraperitoneally (i.p.) 30 min after PHY906 administration with the selected dose. The regimen of FU/LV combination therapy was given as follows:
The first day of treatment was defined as day 0. PHY906 was given orally twice a day (10 am and 3 pm) for either 4 or 8 days beginning on day 0. For the control group, mice were administrated a vehicle, either PBS for i.p. or H2O for p.o. (oral administration). Animals were monitored for mortality, weight loss, and tumor size daily.
Blood Cell Counts: Blood (20 μl) was taken from mice on days 0, 3, 6, 9 and 12 with micro-capillary tubes. Blood was then be diluted to 200 μl with normal saline (0.85% Sodium Chloride). WBC, RBC and platelets were counted by a BAKER SYSTEM 9100™ […] (Biochem ImmunoSystems Inc., Allentown, Pa. 18103-9562).
PHY906 was evaluated as a modulator of CPT-11 therapy for toxic side effects in mice inoculated with Colon 38 tumor cells. Based on the previous findings (Example 2), a single bolus dose of 400 mg/kg CPT-11 was selected to study the effect of PHY906 on weight-loss associated with toxicity of CPT-11. To evaluate whether PHY906 impairs the antitumor efficacy of CPT-11, mice were implanted subcutaneously with Colon 38 tumor cells. Ten to 14 days after inoculation, mice were treated with CPT-11 (400 mg/kg, i.p.) in the absence or presence of PHY906, which was given orally twice a day at varying doses (125 mg/kg, 250 mg/kg, and 500 mg/kg). PHY906 treatment was continued at the dose indicated for 8 consecutive days.
Mice were divided into four groups with different treatment regimens: Group (A) treatment with vehicle; Group (B) treatment with a single dose of 400 mg/kg CPT-11 by i.p. injection; Group (C) treatment with PHY906 (500 mg/kg/b.i.d.) alone; or Group (D) treatment with a single dose of 400 mg/kg CPT-11 plus 500 mg/kg/b.i.d. PHY906 for 4 or 8 days. The sequence of each treatment regimen appears in Materials and Methods. As depicted in Table 9, 35 of 35 tumor-bearing mice (100%) from Group A and 15 of 15 mice (100%) from Group C survived treatment with either vehicle or PHY906 alone for 4 or 8 days, indicating no or very low toxicity for PHY906.

Colon 38 tumor = assay: Tumor growth in BDF-1 mice bearing Colon 38 tumor; assay type: in vivo, mouse; conditions: CPT-11 treated mice; formulation 1 g/kg, bid, 8 days
Experimental: as §1, §2
(A) treatment with FU/LV alone: first dose of LV (50 mg/kg, i.p.), one hour later the second dose of LV (50 mg/kg; i.p.), then immediately given FU (100 mg/kg, i.p.) […]
The first day of treatment was defined as day 0. […] Animals were monitored for mortality, weight loss, and tumor size daily.

[2] = test system: PAN02 murine pancreatic carcinoma; assay: Tumor growth in PAN02 murine pancreatic carcinoma model; assay type: in vivo, mouse; conditions: C57/BL6 mice; 150 mg/kg
Experimental: Tumor Cells: The human hepatocellular carcinoma HepG2, human PANC-1 pancreatic cancer and mouse Colon 38 colorectal cancer cell lines were purchased from the American Type Culture Collection (Rockville, Md.). […] Small chunk of mouse PAN02 tumor from NCI was suspended in PBS solution as a total volume of 0.8 ml. The cells were implanted into the left flank of mice. Tumor transplantation from mice to mice was performed when the tumor reached 1500-2000 mm^3. Mouse Tumor Model: Tumor cells (5×10^6 cells in 0.1 ml PBS) were transplanted subcutaneously into the left flank of mice. After 14 days, tumor ranging in size from 300-500 mm^3 was selected for drug studies. The length and width of the each tumor was measured with sliding calipers. The tumor size was estimated according to the following formula: Tumor size (mm^3)=length (mm)×width (mm)^2/2. Antitumor Activity of Chemotherapeutic Agents in the Presence or Absence of PHY906: […] The first day of drug treatment was defined as day 1. […] Chemotherapeutic agents were given either intraperitoneally or orally at the dose and schedule indicated. The tumor size, body weight, and mortality of the mice were monitored daily.

[3] = Pharmacokinetics of gemcitabine (dFdC) and dFdU in plasma of PAN02 bearing BDF-1 mice; assay type: in vivo; conditions: for AUC, dFdC + PHY906: PHY906 500 mg/kg 30 min before gemcitabine; for AUC, dFdC alone: gemcitabine 600 mg/kg
Experimental: Plasma Handling: The mouse plasma was separated from the blood by centrifugation at 10,000 g at 4° C. for 10 min.
b) Gemcitabine-containing plasma: The plasma (50 μl) was extracted with 200 μl of acetonitrile (ACN) in the presence of 5 μl of 0.1 mM AZT as an internal standard. After centrifugation, the supernatant was dried by a Speedvac, reconstituted with 100 μl of solution containing 2.5% ACN and 97.5% of 15 mM ammonium acetate (pH 5.0).
The resultant analyte was then analyzed by HPLC with UV absorption and/or radioactivity.
To determine, for a future clinical trial, if PHY906 would change the metabolism of gemcitabine, a pharmacokinetics analysis in mice bearing pancreatic cancer was performed. Mice were divided into three sets of 15: gemcitabine only, gemcitabine plus PHY906, and vehicle control. Each mouse in the set was bled twice at two different time points. Plasma was processed as described in Materials and Methods and analyzed by HPLC with radioactivity confirmation of peak identity and quantitation.

pancreatic cancer = conditions: monotherapy; cited from earlier work

In the case of `CN(C)C(=O)C(CCN1CCC(O)(c2ccc(Cl)cc2)CC1)(c1ccccc1)c1ccccc1` [Loperamide], the “Protecting against body weight loss or enhancing the antitumor effects of CPT-11” value ([1]; CPT-11 treated BDF-1 mice bearing Colon 38) is reported as “completely ineffective”, the “Protection from Body Weight Loss” value ([1]; CPT-11 treated mice, formulation 1 g/kg (dry weight incl. excipient), bid, 8 days) is reported as “No Change” and the “Antitumor Effect” value (Colon 38 tumor) is reported as “No Change”.

In the case of `Nc1ccn([C@@H]2O[C@H](CO)[C@@H](O)C2(F)F)c(=O)n1` [dFdC, 2′-deoxy-2′,2′-difluoro-cytidine], the “Antitumor activity, gemcitabine alone” value [2] is reported as “did not have antitumor activity”, the Cmax ([3]; BDF-1, mouse, plasma, oral, 600 mg/kg, Radioactivity detection, read-out: Cmax, dFdC + PHY906) is reported as 400 µg/mL and the Cmax ([3]; BDF-1, mouse, plasma, oral, 600 mg/kg, Radioactivity detection, read-out: Cmax, dFdC alone) is reported as 360 µg/mL. The Tmax ([3]; BDF-1, mouse, plasma, oral, 600 mg/kg, Radioactivity detection, read-out: Tmax, dFdC alone (converted)) was 15 min, the half-life ([3]; BDF-1, mouse, plasma, oral, 600 mg/kg, Radioactivity detection, read-out: T½, dFdC + PHY906) was 34.2 min and the half-life ([3]; BDF-1, mouse, plasma, oral, 600 mg/kg, Radioactivity detection, read-out: T½, dFdC alone) was 26.5 min. For the same molecule, the Cmax ([3]; BDF-1, mouse, plasma, oral, 600 mg/kg, UV detection, read-out: Cmax, dFdC alone) was 230 µg/mL, the half-life ([3]; BDF-1, mouse, plasma, oral, 600 mg/kg, UV detection, read-out: T½, dFdC alone) was 27 min and the “Tmax, dFdC + PHY906” value ([3]; Radioactivity detection) was 15 min. The “AUC, dFdC + PHY906” value ([3]; Radioactivity detection) was 25.0 mg·min/mL, the “AUC, dFdC alone” value ([3]; Radioactivity detection) was 15.6 mg·min/mL and the “Cmax, dFdC + PHY906” value ([3]; UV detection) was 250 µg/mL. For the same molecule, the “Tmax, dFdC + PHY906” value ([3]; UV detection) was 15 min, the “Tmax, dFdC alone” value ([3]; UV detection) was 15 min and the “T½, dFdC + PHY906” value ([3]; UV detection) was 31.0 min. The “AUC, dFdC + PHY906” value ([3]; UV detection) was 15.4 mg·min/mL, the “AUC, dFdC alone” value ([3]; UV detection) was 10.8 mg·min/mL and the “Levels in circulation in the presence or absence of PHY906” value ([3]; plasma) was “not a dramatic difference”. For the same molecule, the Overall survival time (pancreatic cancer) was 4-6 months and the “Response rate in patients” value (pancreatic cancer) was 6-11%.
